Assay results reported in ChEMBL document CHEMBL5291721, “A preclinical secondary pharmacology resource illuminates target-adverse drug reaction associations of marketed drugs” (Nat Commun, 2023).

Key:
[1] = biological target: T1, Adenosine receptor A3 (Homo sapiens, UniProt P0DMS8)
T1 sequence (P0DMS8 whole entry): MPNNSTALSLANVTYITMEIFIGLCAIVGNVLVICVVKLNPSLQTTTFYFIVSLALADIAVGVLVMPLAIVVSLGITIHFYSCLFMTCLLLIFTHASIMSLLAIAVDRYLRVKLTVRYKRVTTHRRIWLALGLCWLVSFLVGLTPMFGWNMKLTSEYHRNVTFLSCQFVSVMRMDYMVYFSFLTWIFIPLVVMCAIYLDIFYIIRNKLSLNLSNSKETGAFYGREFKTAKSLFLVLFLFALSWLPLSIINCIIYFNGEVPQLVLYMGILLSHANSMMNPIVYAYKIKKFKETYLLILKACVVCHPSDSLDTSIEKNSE

[2] = biological target: Prostaglandin G/H synthase 1 (Homo sapiens, UniProt P23219); format: functional
Sequence of Prostaglandin G/H synthase 1 (Homo sapiens, UniProt P23219) (P23219 whole entry): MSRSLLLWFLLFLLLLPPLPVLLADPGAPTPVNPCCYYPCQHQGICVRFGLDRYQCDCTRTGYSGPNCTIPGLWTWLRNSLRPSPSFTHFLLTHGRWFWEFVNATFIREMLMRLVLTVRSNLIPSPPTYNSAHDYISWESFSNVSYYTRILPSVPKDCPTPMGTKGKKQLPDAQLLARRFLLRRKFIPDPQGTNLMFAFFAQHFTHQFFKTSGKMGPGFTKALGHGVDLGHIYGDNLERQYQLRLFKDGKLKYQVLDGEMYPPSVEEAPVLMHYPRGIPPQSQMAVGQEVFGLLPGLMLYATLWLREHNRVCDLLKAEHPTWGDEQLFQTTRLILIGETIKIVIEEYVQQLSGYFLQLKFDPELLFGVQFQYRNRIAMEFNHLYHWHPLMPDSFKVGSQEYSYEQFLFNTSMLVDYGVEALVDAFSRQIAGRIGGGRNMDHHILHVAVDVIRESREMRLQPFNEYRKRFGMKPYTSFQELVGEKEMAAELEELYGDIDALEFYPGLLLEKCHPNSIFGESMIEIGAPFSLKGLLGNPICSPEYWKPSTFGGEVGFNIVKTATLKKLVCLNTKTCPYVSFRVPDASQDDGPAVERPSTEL

[3] = biological target: T2, Muscarinic acetylcholine receptor M1 (Homo sapiens, UniProt P11229); format: functional, cell-based
T2 sequence (P11229 whole entry): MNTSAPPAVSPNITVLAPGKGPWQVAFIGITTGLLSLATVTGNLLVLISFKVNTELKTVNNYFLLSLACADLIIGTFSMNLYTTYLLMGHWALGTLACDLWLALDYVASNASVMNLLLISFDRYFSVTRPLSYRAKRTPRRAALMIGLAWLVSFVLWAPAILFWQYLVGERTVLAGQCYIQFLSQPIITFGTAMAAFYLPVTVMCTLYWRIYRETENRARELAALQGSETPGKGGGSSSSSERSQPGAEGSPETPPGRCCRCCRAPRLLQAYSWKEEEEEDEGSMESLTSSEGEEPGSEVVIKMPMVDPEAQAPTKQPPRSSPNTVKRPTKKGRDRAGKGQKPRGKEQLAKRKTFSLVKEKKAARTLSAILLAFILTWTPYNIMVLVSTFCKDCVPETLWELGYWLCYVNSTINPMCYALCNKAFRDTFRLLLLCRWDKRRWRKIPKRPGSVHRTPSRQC

[4] = biological target: Gamma-aminobutyric acid receptor subunit alpha-1 (Rattus norvegicus, UniProt P62813)
Sequence of Gamma-aminobutyric acid receptor subunit alpha-1 (P62813 whole entry): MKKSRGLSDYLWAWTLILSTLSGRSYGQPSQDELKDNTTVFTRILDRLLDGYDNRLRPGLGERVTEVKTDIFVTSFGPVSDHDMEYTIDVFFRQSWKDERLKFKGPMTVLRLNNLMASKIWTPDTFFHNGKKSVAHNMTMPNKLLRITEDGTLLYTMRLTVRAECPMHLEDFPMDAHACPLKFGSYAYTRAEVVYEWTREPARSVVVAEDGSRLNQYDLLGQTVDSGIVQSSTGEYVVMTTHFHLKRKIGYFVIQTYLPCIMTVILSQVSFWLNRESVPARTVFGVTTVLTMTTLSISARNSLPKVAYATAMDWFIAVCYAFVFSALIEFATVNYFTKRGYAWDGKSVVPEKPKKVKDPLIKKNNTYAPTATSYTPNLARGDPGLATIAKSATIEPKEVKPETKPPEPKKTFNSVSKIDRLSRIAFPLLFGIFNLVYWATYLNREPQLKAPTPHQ

[5] = biological target: Beta-1 adrenergic receptor (Homo sapiens, UniProt P08588); format: functional
Sequence of Beta-1 adrenergic receptor (P08588 whole entry): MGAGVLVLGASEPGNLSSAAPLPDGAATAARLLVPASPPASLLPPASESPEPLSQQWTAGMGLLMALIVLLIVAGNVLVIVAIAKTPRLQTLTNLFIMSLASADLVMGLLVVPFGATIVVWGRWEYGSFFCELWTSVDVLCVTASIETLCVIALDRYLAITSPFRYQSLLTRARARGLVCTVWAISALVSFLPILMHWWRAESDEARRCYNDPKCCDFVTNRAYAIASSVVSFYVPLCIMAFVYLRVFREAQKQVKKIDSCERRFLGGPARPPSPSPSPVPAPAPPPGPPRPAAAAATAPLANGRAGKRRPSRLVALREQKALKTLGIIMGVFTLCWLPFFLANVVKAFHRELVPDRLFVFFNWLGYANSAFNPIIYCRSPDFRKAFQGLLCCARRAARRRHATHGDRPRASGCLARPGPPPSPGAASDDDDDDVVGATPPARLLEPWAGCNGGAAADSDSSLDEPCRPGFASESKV

[6] = biological target: D(3) dopamine receptor (Homo sapiens, UniProt P35462)
Sequence of D(3) dopamine receptor (P35462 whole entry): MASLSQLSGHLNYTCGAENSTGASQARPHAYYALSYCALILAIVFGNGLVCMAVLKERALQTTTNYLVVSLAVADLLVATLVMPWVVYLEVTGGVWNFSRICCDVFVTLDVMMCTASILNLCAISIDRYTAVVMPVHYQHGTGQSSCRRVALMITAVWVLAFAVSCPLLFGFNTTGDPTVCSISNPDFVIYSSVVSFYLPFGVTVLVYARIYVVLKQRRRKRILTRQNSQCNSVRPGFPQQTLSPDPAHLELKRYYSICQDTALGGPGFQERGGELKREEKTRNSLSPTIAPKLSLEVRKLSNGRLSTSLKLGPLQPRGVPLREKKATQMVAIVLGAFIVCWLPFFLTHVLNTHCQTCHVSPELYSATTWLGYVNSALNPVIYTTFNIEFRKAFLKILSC

[7] = biological target: T3, Alpha-1A adrenergic receptor (Homo sapiens, UniProt P35348)
T3 sequence (P35348 whole entry): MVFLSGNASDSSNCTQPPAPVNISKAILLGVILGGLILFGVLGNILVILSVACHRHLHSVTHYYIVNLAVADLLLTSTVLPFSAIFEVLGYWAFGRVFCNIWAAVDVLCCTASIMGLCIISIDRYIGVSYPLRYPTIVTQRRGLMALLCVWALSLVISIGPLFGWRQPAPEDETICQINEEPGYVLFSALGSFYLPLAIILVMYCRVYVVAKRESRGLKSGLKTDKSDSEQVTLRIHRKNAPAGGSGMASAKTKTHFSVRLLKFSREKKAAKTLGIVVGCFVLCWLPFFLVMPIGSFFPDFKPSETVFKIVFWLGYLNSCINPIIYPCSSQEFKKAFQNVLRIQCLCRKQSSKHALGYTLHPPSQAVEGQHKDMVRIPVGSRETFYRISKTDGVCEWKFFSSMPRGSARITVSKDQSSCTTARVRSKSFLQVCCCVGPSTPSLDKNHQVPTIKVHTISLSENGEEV

[8] = biological target: Beta-2 adrenergic receptor (Homo sapiens, UniProt P07550)
Sequence of Beta-2 adrenergic receptor (P07550 whole entry): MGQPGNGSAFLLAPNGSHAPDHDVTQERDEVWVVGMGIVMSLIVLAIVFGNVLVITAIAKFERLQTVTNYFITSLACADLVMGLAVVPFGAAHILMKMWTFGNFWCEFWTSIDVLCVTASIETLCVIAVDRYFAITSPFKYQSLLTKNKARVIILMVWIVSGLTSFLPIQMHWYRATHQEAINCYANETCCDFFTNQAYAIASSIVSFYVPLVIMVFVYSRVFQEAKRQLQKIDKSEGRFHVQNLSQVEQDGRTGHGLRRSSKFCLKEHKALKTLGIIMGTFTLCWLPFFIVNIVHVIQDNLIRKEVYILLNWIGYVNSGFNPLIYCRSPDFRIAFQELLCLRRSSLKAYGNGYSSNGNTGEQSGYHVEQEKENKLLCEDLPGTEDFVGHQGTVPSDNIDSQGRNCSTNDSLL

[9] = biological target: Adenosine receptor A2a (Homo sapiens, UniProt P29274)
Sequence of Adenosine receptor A2a (P29274 whole entry): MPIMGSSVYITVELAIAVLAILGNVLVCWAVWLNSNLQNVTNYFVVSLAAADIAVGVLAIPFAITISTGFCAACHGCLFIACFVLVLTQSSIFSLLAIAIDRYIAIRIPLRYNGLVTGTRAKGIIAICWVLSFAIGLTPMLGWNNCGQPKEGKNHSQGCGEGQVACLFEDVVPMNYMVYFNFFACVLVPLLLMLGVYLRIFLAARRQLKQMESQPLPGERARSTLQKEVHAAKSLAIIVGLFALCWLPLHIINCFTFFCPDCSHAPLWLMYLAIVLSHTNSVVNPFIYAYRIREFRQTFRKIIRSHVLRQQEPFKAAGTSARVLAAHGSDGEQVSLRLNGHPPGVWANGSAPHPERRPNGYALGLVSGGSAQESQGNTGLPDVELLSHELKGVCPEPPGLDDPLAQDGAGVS

[10] = biological target: T4, Alpha-2A adrenergic receptor (Homo sapiens, UniProt P08913); format: functional, cell-based
T4 sequence (P08913 whole entry): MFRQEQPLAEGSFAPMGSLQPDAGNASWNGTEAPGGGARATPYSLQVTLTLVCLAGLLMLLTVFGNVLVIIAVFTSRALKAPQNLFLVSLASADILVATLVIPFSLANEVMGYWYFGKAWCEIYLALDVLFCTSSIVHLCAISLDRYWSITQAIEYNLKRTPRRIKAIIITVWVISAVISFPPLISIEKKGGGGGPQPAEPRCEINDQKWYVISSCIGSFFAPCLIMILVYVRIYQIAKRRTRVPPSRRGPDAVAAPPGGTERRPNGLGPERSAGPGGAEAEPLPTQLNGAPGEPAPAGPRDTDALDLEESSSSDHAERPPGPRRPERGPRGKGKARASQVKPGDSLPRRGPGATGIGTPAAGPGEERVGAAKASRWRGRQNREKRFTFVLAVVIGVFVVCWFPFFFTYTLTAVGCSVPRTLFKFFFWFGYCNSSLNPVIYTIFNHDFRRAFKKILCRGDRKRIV

[11] = biological target: T3, Alpha-1A adrenergic receptor; format: functional, cell-based
[12] = biological target: T5, Prostaglandin G/H synthase 1 (Rattus norvegicus, UniProt Q63921); format: functional
T5 sequence (Q63921 whole entry): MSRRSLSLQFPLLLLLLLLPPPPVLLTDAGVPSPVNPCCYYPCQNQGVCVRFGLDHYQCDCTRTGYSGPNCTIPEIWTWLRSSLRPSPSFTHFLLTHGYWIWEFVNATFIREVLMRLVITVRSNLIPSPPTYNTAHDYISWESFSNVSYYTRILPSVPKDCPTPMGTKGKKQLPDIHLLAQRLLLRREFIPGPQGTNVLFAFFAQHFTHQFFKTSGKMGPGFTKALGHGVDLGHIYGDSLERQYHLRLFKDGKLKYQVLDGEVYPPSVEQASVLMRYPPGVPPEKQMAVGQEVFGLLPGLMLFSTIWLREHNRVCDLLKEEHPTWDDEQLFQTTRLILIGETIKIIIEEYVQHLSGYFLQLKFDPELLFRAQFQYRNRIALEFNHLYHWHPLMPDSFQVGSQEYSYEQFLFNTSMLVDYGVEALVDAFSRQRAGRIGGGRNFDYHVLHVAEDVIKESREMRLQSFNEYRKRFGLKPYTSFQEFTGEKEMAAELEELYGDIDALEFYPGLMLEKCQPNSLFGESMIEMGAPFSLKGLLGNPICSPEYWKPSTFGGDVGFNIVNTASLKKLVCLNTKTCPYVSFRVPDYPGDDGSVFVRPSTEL

[13] = biological target: T4, Alpha-2A adrenergic receptor; format: functional, cell-based; remark: listed apart in the source
[14] = biological target: 5-hydroxytryptamine receptor 2B (Homo sapiens, UniProt P41595); format: functional, cell-based
Sequence of 5-hydroxytryptamine receptor 2B (P41595 whole entry): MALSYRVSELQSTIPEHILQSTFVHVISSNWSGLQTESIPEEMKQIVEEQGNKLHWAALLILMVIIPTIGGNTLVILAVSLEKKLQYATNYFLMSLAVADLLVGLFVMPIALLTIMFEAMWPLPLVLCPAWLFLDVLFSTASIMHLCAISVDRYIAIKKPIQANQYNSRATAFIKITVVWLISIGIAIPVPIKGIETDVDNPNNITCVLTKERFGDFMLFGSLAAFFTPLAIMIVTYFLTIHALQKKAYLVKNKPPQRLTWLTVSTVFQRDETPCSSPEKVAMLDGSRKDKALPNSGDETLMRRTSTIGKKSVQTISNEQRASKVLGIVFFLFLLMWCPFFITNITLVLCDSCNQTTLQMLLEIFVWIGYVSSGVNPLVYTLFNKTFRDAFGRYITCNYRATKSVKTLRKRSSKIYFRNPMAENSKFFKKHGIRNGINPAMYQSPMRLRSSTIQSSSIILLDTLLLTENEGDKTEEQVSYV

[15] = biological target: Cannabinoid receptor 1 (Homo sapiens, UniProt P21554); format: functional, cell-based
Sequence of Cannabinoid receptor 1 (P21554 whole entry): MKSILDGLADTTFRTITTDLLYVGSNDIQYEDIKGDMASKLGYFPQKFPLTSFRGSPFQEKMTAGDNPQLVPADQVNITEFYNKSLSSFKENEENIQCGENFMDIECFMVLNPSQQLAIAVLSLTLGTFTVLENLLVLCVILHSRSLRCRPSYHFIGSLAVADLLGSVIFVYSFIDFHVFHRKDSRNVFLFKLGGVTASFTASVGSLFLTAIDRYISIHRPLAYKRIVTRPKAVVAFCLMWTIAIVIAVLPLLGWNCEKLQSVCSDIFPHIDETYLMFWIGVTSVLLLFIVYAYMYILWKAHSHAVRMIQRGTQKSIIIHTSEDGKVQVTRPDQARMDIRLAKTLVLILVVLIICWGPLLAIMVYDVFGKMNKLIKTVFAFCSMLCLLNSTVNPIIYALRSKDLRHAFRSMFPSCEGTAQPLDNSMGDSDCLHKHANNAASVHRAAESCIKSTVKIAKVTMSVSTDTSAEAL
Also: assay procedure not described here.

Compound	AC50 [1] [µM]	AC50 [2] [µM]	AC50 [3] [µM]	AC50 [4] [µM]	AC50 [5] [µM]	AC50 [6] [µM]	AC50 [7] [µM]	AC50 [8] [µM]	AC50 [9] [µM]	AC50 [10] [µM]	AC50 [11] [µM]	AC50 [12] [µM]	AC50 [13] [µM]	AC50 [14] [µM]	AC50 [15] [µM]
NC(=O)[C@@H]1CC[C@@H]2CN1C(=O)N2OS(=O)(=O)O [AVIBACTAM]	> 30	> 30	> 30	–	–	–	–	–	–	–	–	–	–	–	–
CC(=O)OC[C@H]1O[C@@H](n2ncc(=O)[nH]c2=O)[C@H](OC(C)=O)[C@@H]1OC(C)=O [AZARIBINE]	> 30	> 30	–	> 30	–	–	–	–	–	–	–	–	–	–	–
O=C(/C=C/c1cccc(S(=O)(=O)Nc2ccccc2)c1)NO [BELINOSTAT]	–	5.61	–	> 30	> 10	> 30	> 10	> 10	> 30	–	–	–	–	–	–
CC(O)(CS(=O)(=O)c1ccc(F)cc1)C(=O)Nc1ccc(C#N)c(C(F)(F)F)c1 (stereo not drawn) [BICALUTAMIDE]	–	> 30	–	> 30	> 30	> 10	> 10	> 30	> 30	> 10	> 30	> 30	> 10	> 10	> 30
O=C(O)COCCN1CCN(C(c2ccccc2)c2ccc(Cl)cc2)CC1 (stereo not drawn) [CETIRIZINE]	> 30	–	–	–	> 10	–	> 10	> 10	> 30	> 10	> 30	–	> 10	–	> 30
NC[C@H]1CC[C@H](C(=O)Oc2ccc(CCC(=O)O)cc2)CC1 [CETRAXATE]	–	> 30	–	> 30	–	> 30	–	–	–	> 30	> 30	–	> 30	–	> 30
Cc1ncc2c(c1O)COC2c1ccc(Cl)cc1 (stereo not drawn) [CICLETANINE]	> 30	> 30	> 30	–	–	–	–	–	–	–	–	–	–	–	–
CC(=O)O[C@]1(C(C)=O)CC[C@H]2[C@@H]3C=C(Cl)C4=CC(=O)[C@@H]5C[C@@H]5[C@]4(C)[C@H]3CC[C@@]21C [CYPROTERONE ACETATE]	–	> 30	–	> 30	> 10	> 30	> 10	> 10	> 30	–	–	> 30	–	–	–
CC(=O)O[C@H]1Cc2ccccc2N(C(N)=O)c2ccccc21 [ESLICARBAZEPINE ACETATE]	> 30	> 30	> 30	–	–	–	–	–	–	–	–	–	–	–	–
CC(O)(P(=O)(O)O)P(=O)(O)O [ETIDRONIC ACID]	> 30	> 30	–	> 30	–	–	–	–	–	–	–	–	–	–	–
O=C(CCC/C=C\C[C@@H]1[C@@H](CC[C@@H](O)CCc2ccccc2)[C@H](O)C[C@@H]1O)OCCCCO[N+](=O)[O-] [LATANOPROSTENE BUNOD]	–	> 30	> 30	> 30	–	–	–	–	–	–	–	–	–	–	–
CN(Cc1cnc2nc(N)nc(N)c2n1)c1ccc(C(=O)N[C@@H](CCC(=O)O)C(=O)O)cc1 [METHOTREXATE]	–	–	–	–	> 10	> 30	> 10	> 10	> 30	> 10	> 30	> 30	> 10	> 10	> 30
